Data from patent publication US6653342B2, “13-substituted milbemycin derivatives, their preparation and their use against insects and other pests” (Sankyo Company, Limited, priority 2000, dated 2003).
Several values for one entry are separate records, joined by “and”; a condition that tells them apart may be missing. Identical values can stand only once.

What was measured:
[1] = tested on: Perforating Scabies (Sarcoptes scabiei); experiment: Test on effect against perforating scabies, naturally infected cat (Test Example 7); assay type: in vivo
Description: (§1) Dogs and cats naturally infected with scabies were provided for the test. […] This was administered at a rate of 5 mg/kg body weight to a test animal in its poll region. The epidermis was scraped off the test animal from its ears and limbs before administration and then three weeks after administration of the test compound. The epidermis thus obtained was then charged in a 10% potassium hydroxide solution and the number of worm bodies and eggs was observed microscopically.

[2] = tested on: Southern root-knot nematode; experiment: Test on insecticidal effect against Southern root-knot nematode, cucumber on agar plate (Test Example 10); assay type: in vivo; conditions: 1000 ppm solution on filter paper disks
Description: An agar plate (80 ml: containing 1.25 ppm of kanamycin, 1.25 ppm of streptomycin and 0.8585 ppm of penicillin) was prepared in a container (70×70×20 mm). The plate was planted with a cucumber in the cotyledon stage of development. […] One of the thus-treated paper disks was put into the agar plate and two further treated paper disks were laid over the cotyledon.
After treatment, the container was covered with an acrylic plate to prevent water evaporation. Four days later, about 2.5 ml of a suspension containing 500 second-stage larvae of Southern root-knot nematode were added dropwise to the agar plate. Ten days after addition of the larvae, the number of galls of nematodes was estimated. Each test was conducted at a temperature of 25° C. and a humidity of 65%. “Untreated” in this test is a control in which water was used to soak the filter paper instead of the test compound solution.
The following criteria were used to judge the results obtained:
0: equal to the treatment-free group (51 to 150 galls)
1: slightly less than the treatment-free group (36 to 50 galls)
2: less than the treatment-free group (21 to 35 galls)
3: markedly less than the treatment-free group (0 to 20 galls)

microfilariae (mf) = experiment: Test on activity against microfilariae in culture with or without neutrophils (Test Example 8); conditions: 37° C., 5% CO2, compared to broth containing mf only
[3] = tested on: hookworms (Ancylostoma caninum); experiment: Test on effect against hookworms in naturally infected dogs (Test Example 5); assay type: in vivo; conditions: dogs naturally infected with hookworm, one line per dog
Description: (§2) For each of these three parasites, the number of eggs per gram (EPG) of dog faeces excreted was measured before, and 7 to 9 days after, administration of the test compound. The number of worms excreted in the faeces of the dog (WEF) between administration of the test compound and the end of the test was measured. Upon completion of the test, each of the test dogs was subjected to post mortem to count the number of surviving worms in the digestive tract (SWDT).

cat fleas [4] = experiment: Test on elimination of fleas from dogs (Test Examples 2 and 3); assay type: in vivo, Ctenocephalides felis; conditions: beagles
Description: Beagles provided for the test were infected with cat fleas prior to the commencement of the test. The number of fleas collected from the surface of the body of the dog three days after infection was counted and an infection ratio, calculated as the ratio of the fleas counted three days after infection to the initial number used to infect the dog, was determined for each dog.
The resulting test solution was administered dropwise to the interscapular region of each of four test beagles (4 to 7 months old) at a dose of 5 mg/kg body weight. On Day 7, Day 21 and Day 28 after administration of the test compound, each dog was infected with 100 cat fleas. The number of fleas collected from the surface of the bodies of the dogs three days after infection was counted. The number of fleas obtained before and after administration was determined to give an elimination ratio.
Thus, even 28 days after administration of the test compound, the elimination ratio was 100%.

cat fleas [5] = experiment: whole plant or invertebrate; assay type: in vivo; conditions: 1 ppm in bovine serum sucked through Parafilm at 37° C.; dead fleas after 48 hours; 20 fleas per group; corrected by control group
Description: A test container wherein the living space of fleas was isolated from bovine serum by use of Parafilm™ (obtainable from Aldrich Chemical Co. Ltd.), which is usually used as an artificial skin, was prepared. A compound to be tested was added to the bovine serum in an amount sufficient for its concentration to be 1 ppm, and the fleas were allowed to suck the serum sample through the Parafilm™ at 37° C. Each group consisted of 20 fleas. […] By counting the dead fleas in a control group without a test compound, the mortality was corrected.

[6] = tested on: roundworms (Toxocara canis); experiment: Test on effect against roundworms in naturally infected dogs (Test Example 4); assay type: in vivo; conditions: dogs naturally infected with roundworm, one line per dog
Description: as §2

[7] = tested on: whipworms (Trichuris vulpis); experiment: Test on effect against whipworms in naturally infected dogs (Test Example 6); assay type: in vivo; conditions: dogs naturally infected with whipworm, one line per dog
Description: as §2

[8] = tested on: Perforating Scabies (Sarcoptes scabiei); experiment: Test on effect against perforating scabies, naturally infected dog (Test Example 7); assay type: in vivo
Description: as §1

[9] = 5 mg/kg to poll region, epidermis scraped from ears and limbs, counted microscopically
[10] = 5 mg/kg dropwise to poll region

CCC1OC2(CCC1C)CC1CC(CC=C(C)C(OC(=O)C3(c4ccc(NC(=O)COC)cc4)CCCC3)C(C)C=CC=C3COC4C(O)C(C)=CC(C(=O)O1)C34O)O2 (stereo not drawn) [Example 1(c), 13-[1-(4-Methoxyacetylaminophenyl)cyclopentanecarbonyloxy]-5-hydroxy-milbemycin A4]
After administration (three weeks later) Egg [1, 9]: 0
After administration (three weeks later) Worm body [1, 9]: 0
effects against scabies ([1]; 5 mg/kg, after three weeks): 100%
oviposition preventing effects ([1]; 5 mg/kg, after three weeks): 100%
Effect (result) ([2]; graded by number of galls ten days after addition of larvae): 3 (markedly less than the treatment-free group (0 to 20 galls))
Number of galls ([2]; ten days after addition of 500 second-stage larvae, 25° C., humidity 65%): 6
Percentage reduction of microfilariae (microfilariae (mf); mf + neutrophils + test compound (100 ng/ml)): 53.8%
Percentage reduction of microfilariae (microfilariae (mf); mf + test compound (100 ng/ml), no neutrophils): 0.02%
EPG after 7-9 Days [3, 10]: 0 eggs per gram
Elimination ratio (%) ([3]; 5 mg/kg dropwise): 100%
SWDT (number of surviving worms in the digestive tract) ([3]; 5 mg/kg dropwise, post mortem): 0
elimination ratio (cat fleas [4]; 5 mg/kg body weight dropwise to interscapular region (10% w/v solution), infected with 100 cat fleas 28 days after administration, counted three days after infection): 100%
number of fleas collected from the surfaces of the bodies of the dogs three days after infection (cat fleas [4]; 5 mg/kg dropwise, infection with 100 cat fleas on each of Day 7, Day 21 and Day 28 after administration): no fleas were collected
Mortality (%) (cat fleas [5]): 90.2%
EPG after 7-9 Days ([6]; 5 mg/kg dropwise to poll region, eggs per gram of faeces): 0 eggs per gram
WEF (number of worms excreted in the faeces) ([6]; 5 mg/kg dropwise, between administration and end of test, 5 mg/kg): 3 and 5 and 8
Elimination ratio (%) ([6]; 5 mg/kg dropwise): 100%
SWDT (number of surviving worms in the digestive tract) ([6]; 5 mg/kg dropwise, post mortem): 0
EPG after 7-9 Days [7, 10]: 0 eggs per gram
Elimination ratio (%) ([7]; 5 mg/kg dropwise): 100%
SWDT (number of surviving worms in the digestive tract) ([7]; 5 mg/kg dropwise, post mortem): 0
After administration (three weeks later) Egg [8, 9]: 0
After administration (three weeks later) Worm body [8, 9]: 9
oviposition of scabies ([8]; 5 mg/kg, after three weeks): prevented completely
